We go through four molecules from ChEMBL document CHEMBL5543097, “Synthesis and structure-activity relationships of novel 14-membered 2-fluoro ketolides with structural modification at the C11 position” (Eur J Med Chem, 2024).

A word on the CC50: it is the concentration at which the toxic effect on the cells reaches its halfway point.

Values after ≈ are worked out from the molar mass of the structure shown.

Series [1] concerns Streptococcus pneumoniae. The series can be described thus: Antibacterial activity against erythromycin-resistant Streptococcus pneumoniae SPN19-8 assessed as inhibition of visible bacterial growth incubated for 18 hrs by broth microdilution method. The class given is functional.
Series [2] relates to Moraxella catarrhalis. The series can be described thus: Antibacterial activity against Moraxella catarrhalis BCA 19-31 assessed as inhibition of bacterial growth incubated for 24 hrs by CLSI based broth microdilution method. The class given is functional. Particulars: BCA 19-31, 24 h.
Series [3] relates to Staphylococcus epidermidis. Put plainly: Antibacterial activity against erythromycin-resistant Staphylococcus epidermidis 19-4 assessed as inhibition of visible bacterial growth incubated for 18 hrs by broth microdilution method. The class given is functional. In general terms: Dilution methods test growth across graded concentrations, often in twofold steps.
Series [4] has as its system Haemophilus influenzae. The series can be described thus: Antibacterial activity against Haemophilus influenzae HIN 19-15 assessed as inhibition of bacterial growth incubated for 20 to 24 hrs by CLSI based broth microdilution method. Particulars: time 20-24 hrs. The class given is functional.
Series [5] has as its system Moraxella catarrhalis. The series can be described thus: Antibacterial activity against Moraxella catarrhalis BCA 19-6 assessed as inhibition of bacterial growth incubated for 24 hrs by CLSI based broth microdilution method. In kind it is functional. Conditions: Moraxella catarrhalis, BCA 19-6, 24 h, read-out: MIC.
Series [6] relates to Haemophilus influenzae. The series can be described thus: Antibacterial activity against Haemophilus influenzae HIN 20-18 assessed as inhibition of bacterial growth incubated for 20 to 24 hrs by CLSI based broth microdilution method. The class given is functional. Conditions: time 20-24 hrs.
Series [7] relates to Streptococcus agalactiae. The series can be described thus: Antibacterial activity against erythromycin-resistant Streptococcus agalactiae 19-9 assessed as inhibition of visible bacterial growth incubated for 18 hrs by broth microdilution method. The class given is functional.
The subject of series [8] is Haemophilus influenzae. Put plainly: Antibacterial activity against Haemophilus influenzae HIN 19-18 assessed as inhibition of bacterial growth incubated for 20 to 24 hrs by CLSI based broth microdilution method. Conditions: HIN 19-18, time 20-24 hrs. The class given is functional.
The subject of series [9] is Streptococcus pneumoniae. Put plainly: Antibacterial activity against erythromycin-resistant Streptococcus pneumoniae SPN19-14 assessed as inhibition of visible bacterial growth incubated for 18 hrs by broth microdilution method. The class given is functional.
The nature of series [10]: Cytotoxicity against mouse AML12 cells assessed as reduction in cell viability incubated for 48 hrs by MTT assay. In kind it is toxicity, cell-based. (In general: Tetrazolium dyes change colour on reduction, which living cells bring about.)
A further series relates to Streptococcus pyogenes. The series can be described thus: Antibacterial activity against erythromycin-resistant Streptococcus pyogenes ATCC 19615 assessed as inhibition of visible bacterial growth incubated for 18 hrs by broth microdilution method. In kind it is functional.
For series [11], the system named is Staphylococcus epidermidis. The series can be described thus: Antibacterial activity against erythromycin-resistant Staphylococcus epidermidis 19-9 assessed as inhibition of visible bacterial growth incubated for 18 hrs by broth microdilution method. In kind it is functional.
Series [12] has as its system Streptococcus agalactiae. The series can be described thus: Antibacterial activity against erythromycin-resistant Streptococcus agalactiae 19-8 assessed as inhibition of visible bacterial growth incubated for 18 hrs by broth microdilution method. The class given is functional.
Series [13] concerns Staphylococcus epidermidis. The series can be described thus: Antibacterial activity against erythromycin-resistant Staphylococcus epidermidis 19-8 assessed as inhibition of visible bacterial growth incubated for 18 hrs by broth microdilution method. In kind it is functional.
For series [14], the system named is Moraxella catarrhalis. The series can be described thus: Antibacterial activity against Moraxella catarrhalis BCA 19-5 assessed as inhibition of bacterial growth incubated for 24 hrs by CLSI based broth microdilution method. The class given is functional.
Series [15] deals with Staphylococcus epidermidis. The series can be described thus: Antibacterial activity against erythromycin-resistant Staphylococcus epidermidis 19-11 assessed as inhibition of visible bacterial growth incubated for 18 hrs by broth microdilution method. The class given is functional.
Series [16] concerns Streptococcus pneumoniae. Put plainly: Antibacterial activity against erythromycin-resistant Streptococcus pneumoniae SPN19-13 assessed as inhibition of visible bacterial growth incubated for 18 hrs by broth microdilution method. The class given is functional.
The test system of series [17] is Staphylococcus epidermidis. Put plainly: Antibacterial activity against erythromycin-resistant Staphylococcus epidermidis 19-6 assessed as inhibition of visible bacterial growth incubated for 18 hrs by broth microdilution method. The class given is functional.
The subject of series [18] is Staphylococcus epidermidis. The series can be described thus: Antibacterial activity against erythromycin-resistant Staphylococcus epidermidis 19-5 assessed as inhibition of visible bacterial growth incubated for 18 hrs by broth microdilution method. The class given is functional.
Series [19] deals with Streptococcus pneumoniae. The series can be described thus: Potency index, ratio of telithromycin MIC to test compound MIC for antibacterial activity against Streptococcus pneumoniae SPN19-8 assessed as inhibition of visible bacterial growth incubated for 18 hrs by broth microdilution method. In kind it is functional.
In series [20] the test system is Streptococcus pneumoniae. The series can be described thus: Potency index, ratio of telithromycin MIC to test compound MIC for antibacterial activity against Streptococcus pneumoniae SPN19-13 assessed as inhibition of visible bacterial growth incubated for 18 hrs by broth microdilution method. The class given is functional.
In series [21] the test system is Streptococcus pneumoniae. The series can be described thus: Potency index, ratio of telithromycin MIC to test compound MIC for antibacterial activity against Streptococcus pneumoniae SPN19-14 assessed as inhibition of visible bacterial growth incubated for 18 hrs by broth microdilution method. The class given is functional.
Setting [22] is: Moraxella catarrhalis, BCA 19-5, 24 h, read-out: MIC.

`CC[C@H]1OC(=O)[C@H](C)[C@@H](O[C@H]2C[C@@](C)(OC)[C@@H](O)[C@H](C)O2)[C@H](C)[C@@H](O[C@@H]2O[C@H](C)C[C@H](N(C)C)[C@H]2O)[C@](C)(O)C[C@@H](C)CN(C)[C@H](C)[C@@H](O)[C@]1(C)O` [AZITHROMYCIN]: the MIC in the series with Streptococcus pneumoniae [1] was 0.25 µg/mL (≈ 0.334 µM); in the series with Moraxella catarrhalis [2], 0.125 µg/mL (≈ 0.167 µM); in [3] it was above 64 µg/mL; in the series on Haemophilus influenzae [4] it was 4 µg/mL (≈ 5.34 µM); in the series with Moraxella catarrhalis [5], above 64 µg/mL; with Haemophilus influenzae [6], above 16 µg/mL. The MIC is 0.125 µg/mL (≈ 0.167 µM) with Streptococcus agalactiae [7]; 4 µg/mL (≈ 5.34 µM) in the series with Haemophilus influenzae [8]; 4 µg/mL (≈ 5.34 µM) in the series with Streptococcus pneumoniae [9]; 0.25 µg/mL (≈ 0.334 µM) with Streptococcus pyogenes; above 64 µg/mL in series [11]; 0.5 µg/mL (≈ 0.668 µM) with Streptococcus agalactiae [12]. The MIC in series [13] was 0.25 µg/mL (≈ 0.334 µM); in the series with Moraxella catarrhalis [14] (setting [22]), above 64 µg/mL; in series [15], 0.25 µg/mL (≈ 0.334 µM); in the series with Streptococcus pneumoniae [16], above 64 µg/mL; in series [17], 0.5 µg/mL (≈ 0.668 µM); in [18] it was 0.5 µg/mL (≈ 0.668 µM). In addition, the CC50 at 48 h in [10] is above 100 µM.

In the case of `CC[C@H]1OC(=O)[C@@](C)(F)C(=O)[C@H](C)[C@@H](O[C@@H]2O[C@H](C)C[C@H](N(C)C)[C@H]2O)[C@](C)(OC)C[C@@H](C)C(=O)[C@H](C)[C@H]2N(CCCOC(=O)Nc3ccc(C)cc3)C(=O)O[C@]12C`, the MIC was 0.06 µg/mL (≈ 0.073 µM) with Streptococcus pneumoniae [1]; below 0.03 µg/mL in series [3]; 8 µg/mL (≈ 9.73 µM) in the series with Haemophilus influenzae [4]; 0.25 µg/mL (≈ 0.304 µM) with Streptococcus agalactiae [7]; 8 µg/mL (≈ 9.73 µM) with Haemophilus influenzae [8]; below 0.03 µg/mL in the series on Streptococcus pneumoniae [9]. For the same molecule, the MIC is below 0.03 µg/mL with Streptococcus pyogenes; 0.125 µg/mL (≈ 0.152 µM) in series [11]; below 0.03 µg/mL in the series on Streptococcus agalactiae [12]; below 0.03 µg/mL in series [13]; below 0.03 µg/mL in the series on Moraxella catarrhalis [14] (24 h); 0.03 µg/mL (≈ 0.0365 µM) in the series with Moraxella catarrhalis [14] (setting [22]). The MIC (in [15]; in the series on Streptococcus pneumoniae [16]; in series [17]; in series [18]) was below 0.03 µg/mL throughout. In addition, the Ratio in the series with Streptococcus pneumoniae [19], in the series on Streptococcus pneumoniae [20] and with Streptococcus pneumoniae [21] was below 4 throughout. Also, the CC50 at 48 h in [10] turned out to be 83.2 µM.

On to `CC[C@H]1OC(=O)[C@H](C)[C@@H](O[C@H]2C[C@@](C)(OC)[C@@H](O)[C@H](C)O2)[C@H](C)[C@@H](O[C@@H]2O[C@H](C)C[C@H](N(C)C)[C@H]2O)[C@](C)(OC)C[C@@H](C)C(=O)[C@H](C)[C@@H](O)[C@]1(C)O` [CLARITHROMYCIN], for which the MIC in the series with Streptococcus pneumoniae [1] was above 64 µg/mL; in the series with Moraxella catarrhalis [2], 0.125 µg/mL (≈ 0.167 µM); in series [3], above 64 µg/mL; in the series with Haemophilus influenzae [4] it was 4 µg/mL (≈ 5.35 µM); with Moraxella catarrhalis [5] it was 32 µg/mL (≈ 42.8 µM); with Haemophilus influenzae [6] it was above 16 µg/mL. For the same molecule, the MIC in the series with Streptococcus agalactiae [7] is 64 µg/mL (≈ 85.6 µM); with Haemophilus influenzae [8] it was 8 µg/mL (≈ 10.7 µM); with Streptococcus pneumoniae [9], 0.5 µg/mL (≈ 0.668 µM); with Streptococcus pyogenes, below 0.03 µg/mL; in [11], 16 µg/mL (≈ 21.4 µM); in the series on Streptococcus agalactiae [12], 0.06 µg/mL (≈ 0.0802 µM). Further, the MIC in series [13] is above 64 µg/mL; in the series on Moraxella catarrhalis [14] (setting [22]) it was above 64 µg/mL; in series [15], 16 µg/mL (≈ 21.4 µM); with Streptococcus pneumoniae [16] it was 64 µg/mL (≈ 85.6 µM); in series [17] it was 64 µg/mL (≈ 85.6 µM); in series [18], 0.25 µg/mL (≈ 0.334 µM). Also, the CC50 at 48 h in [10] is above 100 µM.

Regarding `CC[C@H]1OC(=O)[C@@](C)(F)C(=O)[C@H](C)[C@@H](O[C@@H]2O[C@H](C)C[C@H](N(C)C)[C@H]2O)[C@](C)(OC)C[C@@H](C)C(=O)[C@H](C)[C@H]2N(CCCOC(=O)Nc3cccs3)C(=O)O[C@]12C`, the MIC came out at 0.125 µg/mL (≈ 0.154 µM) with Streptococcus pneumoniae [1]; 0.06 µg/mL (≈ 0.0737 µM) with Moraxella catarrhalis [2]; 0.25 µg/mL (≈ 0.307 µM) in [3]; 4 µg/mL (≈ 4.91 µM) with Haemophilus influenzae [4]; 0.25 µg/mL (≈ 0.307 µM) in the series on Moraxella catarrhalis [5]; 8 µg/mL (≈ 9.83 µM) in the series on Haemophilus influenzae [6]. In addition, the MIC with Streptococcus agalactiae [7] was 1 µg/mL (≈ 1.23 µM); with Haemophilus influenzae [8], 4 µg/mL (≈ 4.91 µM); in the series with Streptococcus pneumoniae [9], 0.25 µg/mL (≈ 0.307 µM); in the series on Streptococcus pyogenes, below 0.03 µg/mL; in series [11], 0.5 µg/mL (≈ 0.614 µM); in [13], 0.06 µg/mL (≈ 0.0737 µM). Moreover, the MIC in the series with Moraxella catarrhalis [14] (setting [22]) is 0.25 µg/mL (≈ 0.307 µM); in series [15], below 0.03 µg/mL; in the series with Streptococcus pneumoniae [16] it was 0.25 µg/mL (≈ 0.307 µM); in [17], 0.06 µg/mL (≈ 0.0737 µM); in [18], below 0.03 µg/mL. For the same molecule, the Ratio in the series with Streptococcus pneumoniae [19], in the series on Streptococcus pneumoniae [20] and with Streptococcus pneumoniae [21] was below 4 throughout. Moreover, in [10], the CC50 at 48 h is above 100 µM.
